Patent publication US10294214B2, “Positive allosteric modulators of human melanocortin-4 receptor” (Vanderbilt University, priority 2016, dated 2019)
“Also recorded” adds a separate entry of the source.

How the values were obtained:
[1] = test system: Y receptor; experiment: Ussing chamber assay, PYY responses in mouse colon mucosa; details: PYY 10 nM; for Effect on PYY responses: Example 3 at 200 nM or 1 μM; for Effect of antagonist on PYY responses: HS014 30 nM, 300 nM BIBO3304 plus 1 μM BIIE0246 in combination
Protocol: (§1) FIGS. 2A-2I contain data on the characterization of hMC4R PAMs Examples 1, 2, and 3. FIGS. 2A, 2B, and 2C show structures of Examples 1-3, and the affect of Examples 1-3 on the α-MSH dose-response curve at the hMC4R, as determined using the Lance assay. Insets show the concentration-response effect as a function of the fold shift on the α-MSH concentration response curve. […] After α-MSH responses had waned all tissues received PYY (10 nM) to verify residual Y receptor anti-secretory activity. Basal Isc values are indicated to the left of each trace from an exposed area of 0.14 cm^2. Vertical arrows show the timepoint at which α-MSH Isc responses were recorded. […] Each value is the mean±1 SEM with n values in parentheses. ** P<0.01 using one-way ANOVA with Dunnett's post-test.
(§2) GI tissue from adult (12-20 week old) male C57BL/6J mice were dissected free of overlying smooth muscle and mucosae placed between 2 halves of Ussing chambers exposing an area of 0.14 cm^2. Mucosae were bathed both sides with Krebs-Henseleit (KH) buffer of following composition (in mM: 117 NaCl, 24.8 NaHCO3, 4.7 KCl, 1.2 MgSO4, 1.2 KH2PO4, 2.5 CaCl2 and 11.1 D-glucose) aerated with 95% O2/5% CO2 (pH 7.4) and voltage-clamped at 0 mV as described in detail previously (Cox et al., 2001; Cox and Tough, 2002). MC4R activity in mouse colonic epithelium was then characterized. Mouse mucosae were pretreated with vehicle or PAM compounds, then with secretagogue, VIP (10 nM, basolateral), and once elevated ISC had reached its peak and was declining at a constant rate, α-MSH was added to the basolateral reservoir to determine responses.
(§3) ISC responses in μA are expressed as the mean±SEM per unit area (cm2). Single comparisons (using GraphPad Prism) were performed using Student's unpaired t-test while multiple comparisons utilized 1-way ANOVA with Dunnett's post test and P≤0.05 were considered statistically significant.

[2] = biological target: T1, hMC4R (Homo sapiens (Human), UniProt P32245); experiment: LANCE cAMP assay, hMC4R PAM; format: cell-based; details: for hMC4R PAM LANCE pEC50 Mean: HEK293 cells stably expressing the hMC4R, α-MSH at an EC20 dose; for Emax: read-out: % of αMSH maximal response
T1 sequence (P32245 whole entry): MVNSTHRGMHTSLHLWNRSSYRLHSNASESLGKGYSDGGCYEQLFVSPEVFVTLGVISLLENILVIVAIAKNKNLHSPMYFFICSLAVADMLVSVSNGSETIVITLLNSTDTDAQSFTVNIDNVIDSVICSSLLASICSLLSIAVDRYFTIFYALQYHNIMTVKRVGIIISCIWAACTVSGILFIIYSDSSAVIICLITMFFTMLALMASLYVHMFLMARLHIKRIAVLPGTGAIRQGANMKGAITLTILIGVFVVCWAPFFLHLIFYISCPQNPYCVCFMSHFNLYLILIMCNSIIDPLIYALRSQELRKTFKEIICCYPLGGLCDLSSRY
Protocol: Analysis of pharmacological properties of compounds was performed using the LANCE cAMP kit (Perkin Elmer). HEK293 cells stably expressing the hMC4R were treated with PAM compounds at doses indicated, then incubated with an Alexa Fluor 647-labeled antibody in stimulation buffer according to manufacturer's instructions for 30 min at RT. Next, α-MSH was added (at an EC20 dose or at doses indicated for concentration-response curves), and plates were incubated for 15 minutes at RT, followed by the addition of 10 μL of detection mix. Plates were then incubated for 30 minutes at RT and read on a Viewlux (Perkin Elmer) using 618 and 671 nm emission filters. IBMX was not included in the assay.

[3] = biological target: native L cell MC4R (Mus musculus (Mouse), UniProt P56450); experiment: Ussing chamber assay, α-MSH inhibition of VIP-elevated Isc in mouse colon mucosa; details: for α-MSH response (inhibition of Isc) after pretreatment / Effect of antagonist on α-MSH inhibition of Isc potentiated by 1 μM Example 3: α-MSH 300 nM; for Effect of compound alone on basal Isc: basolateral, Example 3 at 200 nM or 1 μM, vs vehicle; for Effect of antagonist on α-MSH inhibition of Isc potentiated by 1 μM Example 3: HS014 30 nM, 300 nM BIBO3304 plus 1 μM BIIE0246 in combination
Chain of native L cell MC4R (P56450 whole entry): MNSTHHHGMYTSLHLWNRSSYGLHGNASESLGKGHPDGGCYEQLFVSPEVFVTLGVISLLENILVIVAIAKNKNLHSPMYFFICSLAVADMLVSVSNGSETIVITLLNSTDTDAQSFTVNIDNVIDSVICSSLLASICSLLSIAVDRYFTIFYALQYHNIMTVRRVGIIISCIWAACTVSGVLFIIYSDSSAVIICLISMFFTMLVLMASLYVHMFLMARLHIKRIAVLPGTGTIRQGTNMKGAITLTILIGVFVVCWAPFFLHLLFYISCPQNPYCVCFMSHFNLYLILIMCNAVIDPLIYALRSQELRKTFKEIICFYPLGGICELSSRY
Protocol: as §1, §2, §3

[4] = biological target: T1, hMC4R; experiment: pGLO cAMP assay, PAM HTS primary screen; format: cell-based; details: 1 μM of library compound
Protocol: (§4) Drug screening for identification of hits and initial characterization of MC4R PAM compounds were performed using the pGLO assay, as described previously (Pantel J, et al., (2011) Development of a high throughput screen for allosteric modulators of melanocortin-4 receptor signaling using a real time cAMP assay. Eur J Pharmacol 660:139-147. HEK293 cells stably expressing the hMC4R or the hB2ADR with GloSensor (Promega) were plated at a density of 10,000 to 15,000 cells per well on Poly-D-Lysin coated black optical bottom 384 well plates in MEM supplemented with 2% serum. The next day, cells were loaded with the cAMP Glo reagent at a 2% concentration in CO2-independent media for 2 hours at 37° C. […]
(§5) HEK293 cells stably expressing the hMC4R or the β-adrenergic receptor with the p-Promega pGlo luciferase cAMP reporter were plated at a density of 10,000 to 15,000 cells per well on Poly-D-Lysin coated black optical bottom 384 well plates in MEM supplemented with 2% serum. The next day, cells were loaded with the p-Glo substrate at a 2% concentration in CO2-independent media for 2 hours at 37° C. cAMP concentration in cells were measured as a function of luminescence over time using a Hamamatsu FDSS 6000 plate reader. Basal luminescence were measured for 5 minutes followed by injection of 1 μM of the library compounds. […]

[5] = biological target: human β2-adrenergic receptor (Homo sapiens (Human), UniProt P07550); experiment: pGLO cAMP assay, counterscreen; format: cell-based; details: Isop EC20
Chain of human β2-adrenergic receptor (P07550 whole entry): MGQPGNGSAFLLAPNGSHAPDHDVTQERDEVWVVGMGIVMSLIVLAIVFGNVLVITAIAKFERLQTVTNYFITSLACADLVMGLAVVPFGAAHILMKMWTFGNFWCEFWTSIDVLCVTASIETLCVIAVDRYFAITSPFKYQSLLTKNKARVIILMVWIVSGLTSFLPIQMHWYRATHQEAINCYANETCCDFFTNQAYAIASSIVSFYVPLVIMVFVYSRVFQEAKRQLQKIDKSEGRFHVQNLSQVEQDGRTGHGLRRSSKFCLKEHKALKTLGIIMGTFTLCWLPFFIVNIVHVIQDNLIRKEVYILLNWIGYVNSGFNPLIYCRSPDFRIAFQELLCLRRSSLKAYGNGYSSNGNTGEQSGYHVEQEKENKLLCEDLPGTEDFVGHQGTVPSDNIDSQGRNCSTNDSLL
Protocol: as §4, §5

[6] = test system: C57BL/6 mice; experiment: Inhibition of fast-induced refeeding in the mouse; format: in vivo; details: single i.p. dose 5 mg/kg; overnight fasted mice; food intake after two and six hours
Protocol: FIG. 4 contains data from assays of inhibition of food intake in the mouse by MC4R PAM Example 3. Nine to ten week old C57BL/6 mice were fasted overnight (15 to 17 hours) and re-feeding was monitored the following day after a single i.p. dose of Example 3 (5 mg/kg) or vehicle (10% Tween 80, 5% DMSO v/v). Normalized food intake (food consumed in grams per 100 grams of body weight) per treatment group is shown in the top graphs after two hours (top left) and six hours (top right) of onset of re-feeding phase. Body weight changes for two and six hours are shown in the bottom left and right panels respectively. p values are noted on each graph and were determined by unpaired t tests. Significance was set to p values <0.05.

## O=C(CN1CCC2(CCCC2)CC1)Nc1c(C(=O)C2CC2)[nH]c2ccccc12 [Example 2, N-(2-(cyclopropanecarbonyl)-1H-indol-3-yl)-2-(8-azaspiro[4.5]decan-8-yl)acetamide]
[1]
  Effect on PYY responses: unaffected
[2]
  hMC4R PAM LANCE pEC50 Mean: 6.3
[2]; in vitro characterisation
  pEC50: 6.3
  Emax: 80%
[3]; 3 μM pretreatment
  α-MSH response (inhibition of Isc) after pretreatment: potentiated significantly
[3]
  Effect of compound alone on basal Isc: not significantly different to vehicle controls
[3]; mouse colonic epithelium
  MC4R PAM activity on α-MSH induced, PYY mediated short circuit current inhibition: exhibited MC4R PAM activity

## CC(C)(C)C1CCN(CC(=O)Nc2c(C(=O)C3CC3)[nH]c3ccccc23)CC1 [Example 1, 2-(4-(tert-butyl)piperidin-1-yl)-N-(2-(cyclopropanecarbonyl)-1H-indol-3-yl)acetamide]
[1]
  Effect on PYY responses: unaffected
[2]
  hMC4R PAM LANCE pEC50 Mean: 6.2
[2]; in vitro characterisation
  EC50: 398 nM
  Emax: 83%
[3]; 10 μM pretreatment
  α-MSH response (inhibition of Isc) after pretreatment: potentiated significantly
[3]
  Effect of compound alone on basal Isc: not significantly different to vehicle controls
[3]; mouse colonic epithelium
  MC4R PAM activity on α-MSH induced, PYY mediated short circuit current inhibition: exhibited MC4R PAM activity

## N=C(N)NCCC[C@H](NC(=O)CC1(CC(=O)N2CCN(C3c4ccccc4NC(=O)c4ccccc43)CC2)CCCC1)C(=O)NCCn1c(=O)n(-c2ccccc2)n(-c2ccccc2)c1=O (stereo partly shown) [BIIE0246, reference compound]
[1]
  Effect of antagonist on PYY responses: predictably abolished
[3]
  Effect of antagonist on α-MSH inhibition of Isc potentiated by 1 μM Example 3: abolished

## NC(=O)NCc1ccc(CNC(=O)[C@@H](CCCN=C(N)N)NC(=O)C(c2ccccc2)c2ccccc2)cc1 [BIBO3304, reference compound]
[1]
  Effect of antagonist on PYY responses: predictably abolished
[3]
  Effect of antagonist on α-MSH inhibition of Isc potentiated by 1 μM Example 3: abolished

## COc1cc(-c2nc(NCc3ccco3)c3ccccc3n2)cc(OC)c1OC [VUO127431, N-(furan-2-ylmethyl)-2-(3,4,5-trimethoxyphenyl)quinazolin-4-amine]
[4]
  Effect on hMC4R signaling (cAMP) with α-MSH EC20: enhanced hMC4R signaling
[5]
  Effect on β2-adrenergic-receptor signaling (cAMP): no significant effect on β2-adrenergic-receptor signaling

## CC(=O)c1[nH]c2ccccc2c1NC(=O)CN1CCC(c2ccccc2)CC1 [Example 19]
[2]
  hMC4R PAM LANCE pEC50 Mean: 6.2

## COC(=O)c1[nH]c2ccc(Br)cc2c1NC(=O)CN1CCN(c2cccc(OC)c2)C(C)C1 (stereo not shown) [Example 13]
[2]
  hMC4R PAM LANCE pEC50 Mean: 6.3

## COC(=O)c1[nH]c2ccccc2c1NC(=O)C(C)N1CCC(Cc2ccccc2)CC1 (stereo not shown) [Example 30]
[2]
  hMC4R PAM LANCE pEC50 Mean: 5.9

## COC(=O)c1[nH]c2ccccc2c1NC(=O)CN1CCN(c2cccc(C(F)(F)F)c2)CC1 [Example 12]
[2]
  hMC4R PAM LANCE pEC50 Mean: 6.3

## COC(=O)c1[nH]c2ccc(Cl)cc2c1NC(=O)CN1CCC(Cc2ccccc2)CC1 [Example 21]
[2]
  hMC4R PAM LANCE pEC50 Mean: 6.2

## COC(=O)c1[nH]c2ccc(Br)cc2c1NC(=O)CN1CCN(c2ccccc2)CC1 [Example 17]
[2]
  hMC4R PAM LANCE pEC50 Mean: 6.2

## COC(=O)c1[nH]c2ccc(N3CCOCC3)cc2c1NC(=O)CN1CCC(C2CCCCC2)CC1 [Example 61]
[2]
  hMC4R PAM LANCE pEC50 Mean: 6.6

## CC(=O)c1[nH]c2ccc(Br)cc2c1NC(=O)CN1CCC(c2ccccc2)CC1 [Example 43]
[2]
  hMC4R PAM LANCE pEC50 Mean: 6.4

## CCOC(=O)c1[nH]c2ccncc2c1NC(=O)CN1CCCC(C)(C)C1 [Example 28]
[2]
  hMC4R PAM LANCE pEC50 Mean: 5.8

## O=C(CN1CCC2(CCCCC2)CC1)Nc1c(C(=O)C2CC2)[nH]c2ccccc12 [Example 65]
[2]
  hMC4R PAM LANCE pEC50 Mean: 6.5

## COC(=O)c1[nH]c2ccccc2c1NC(=O)CN1CCC(C2CCCCC2)CC1 [Example 3, methyl 3-(2-(4-cyclohexylpiperidin-1-yl)acetamido)-1H-indole-2-carboxylate]
[1]
  Effect on PYY responses: did not modulate the activity of PYY; also recorded: unaffected
[6]
  Anorexigenic activity, fast-induced refeeding: small, but statistically significant anorexigenic activity
[2]
  hMC4R PAM LANCE pEC50 Mean: 6.7
[2]; in vitro characterisation
  pEC50: 6.7
  Emax: 102%
[3]; 1 μM pretreatment, vs vehicle controls
  α-MSH response (inhibition of Isc) after pretreatment: significantly increased; also recorded: significantly potentiated
[3]
  Effect of compound alone on basal Isc: no activity on its own; also recorded: not significantly different from vehicle
[3]; mouse colonic epithelium
  MC4R PAM activity on α-MSH induced, PYY mediated short circuit current inhibition: nearly tripled the activity of α-MSH
[3]; mouse colonic epithelium, read-out: EC50 for potentiation of α-MSH induced short circuit current inhibition
  EC50: ~200 nM

## O=C(CN1CCC(C2CCCCC2)CC1)Nc1c(C(=O)C2CC2)[nH]c2ccc(N3CCOCC3)cc12 [Example 66]
[2]
  hMC4R PAM LANCE pEC50 Mean: 6.6
